Results on 11 molecules are retold here after patent US7759399B2, “Pharmaceutical compositions” (priority 2002, dated 2010).

One series has as its system NF-κB. As to the kind of experiment: NF-κB-dependent luciferase reporter gene assay, HeLa κB-transformed cells, TPA stimulated. The series is classed as cell-based. The note with it: Homo sapiens, HeLa, 8 h treatment, TPA 25 ng/ml 2 h after exposure, read-out: NF-κB, IC50 (concentration at which the compound halved the NF-κB activity). On the procedure: (§1) Method: HeLa cell clone 13B, stably transfected with a luciferase reporter plasmid controlled by the human hsp70 promoter, and HeLa κB-transformed cells, stably transfected with a luciferase reporter plasmid controlled by a synthetic NF-κB-STM construct, were maintained in DMEM medium supplemented with 10% FBS, L-glutamine (2 mM) and G418 (250 μg/ml) at 37° C. in a 5% CO2 humidified atmosphere.
(§2) Cells were seeded at a density of 4×10^4 cells/well in 96-well plates. After 18-20 h, the medium was removed and cells were treated for 8 h with the test compounds (100 μl) at the appropriate dilutions in serum-free medium. For the NF-κB-dependent reporter gene assay, cells were stimulated with TPA (25 ng/ml) 2 h after exposure to the compounds.
(§3) After incubation, the medium was removed and cells were lysed in 10 μl of lysis buffer. The luciferase activity was determined by adding 100 μl of substrate and measuring the release of light using a Victor 1420 microplate reader (Wallac, Finland).
The fragment Kpn I-BamH I from the pGL3 basic vector containing the luciferase gene (PROMEGA) was inserted in the pcDNA3 vector (INVITROGEN) digested with Bgl II-KpnI. (This digestion removes the CMV-promoter from pcDNA3.) The resulting new vector was digested with Kpn I-Hind III and a promoter containing a ‘5xNF-κB binding sites—TATA box’ sequence was inserted upstream of the luciferase gene. This vector has been named STM.
To obtain stable HeLa cell lines expressing the luciferase gene under the control of NF-κB, HeLa cells were transfected (using lipofectamine plus GIBCO) with the STM-Pvu I linearized vector, and selected for 20 days with G418 (800 μg/ml). After selection, the resistant HeLa cell pool was controlled (in quadruplicate samples) for luciferase activity after stimulation with TNFα, IL-1 and TPA.
(§4) The AC200/μM for HSF is the concentration at which the tested compound doubled the HSF activity in this assay. The IC50/μM for NF-κB is the concentration at which the tested compound halved the NF-κB activity in this assay.

The test system of a further series is HSF. As to the kind of experiment: HSF luciferase reporter assay, HeLa cell clone 13B (human hsp70 promoter). The series is classed as cell-based. The note with it: 8 h, HeLa clone 13B, 8 h treatment, serum-free medium, read-out: HSF, AC200 (concentration at which the compound doubled the HSF activity). On the procedure:
as §1, §2, §3, §4
(In a reporter assay the amount or activity of a reporter protein is the signal.)

Another series concerns Sendai virus. As to the kind of experiment: Sendai virus replication in 37RC cells (virus yield by HAU titration). The series is classed as cell-based. The settings on record: Respirovirus muris, 5 HAU/10^5 cells, virus yield at 24 hours after infection, read-out: ID50 (50% inhibitory dose/concentration), Sendai virus yield.
The subject of the next series is uninfected 37RC cells. As to the kind of experiment: Toxicity to uninfected cells, determined visually by microscopy (TD100).
A short description of the next series: in vitro. The class given is cell-based. The settings on record: 37RC cells, 24 h treatment; read-out: LC50 (50% lethal dose/concentration), Neutral Red. As for the experimental part:
Cell viability was determined using the Neutral Red assay. 37RC cells were seeded at density of 6×10^4 cells/well in 24-well plates and incubated for 24 h. Confluent 37RC monolayers were treated with the test compounds at different dilutions for 24 h at 37° C. After incubation, the medium was removed and the cells were incubated with RPMI medium containing 40 μg/ml Neutral Red dye (500 μl/well). After 2 h at 37° C., the monolayers were washed with phosphate-buffered saline (PBS) and then with a solution containing 1% CaCl2 and 0.5% formaldehyde. After washing, a solution containing 1% acetic acid/50% ethanol was added to the monolayers (250 μl/well). After 10 min at room temperature, the absorbance was determined with a microplate reader (Victor 1420, Wallac) at 540 nm.

Series [1] in a line: Alamar Blue cytotoxicity assay. The series is classed as cell-based. The note with it: human. On the procedure: HeLa cells were plated in 96-well microtiter plates in 100 μl culture medium (4×10^4/well). After 20 hours, the cells were exposed to the test compounds at different dilutions and incubated for the next 8 h at 37° C. in a 5% CO2 humidified atmosphere. After 6 h incubation, the Alamar Blue was added in an amount equal to 10% of the culture volume (10 μl). Two hours after the addition of the Alamar Blue, the fluorescence was measured using a Victor 1420 microplate reader.
The LC50/μM is the concentration at which the tested compound killed half the cells in this assay.
Background: The colour change of resazurin is a common sign of viable cells or microbes.

In the case of `CC(C)(C)OC(=O)N[C@@H](CS[C@@H]1CC(=O)C(C)(C)C1OC(=O)C(C)(C)C)C(=O)O` (stereo in doubt) [CTM-217, (2R)-2-tert-butoxycarbonylamino-3-[(1R,2S)-2-(2,2-dimethylpropionyloxy)-3,3-dimethyl-4-oxocyclopentylsulfanyl]-propionic acid], in the series with NF-κB, the IC50 turned out to be 14 µM. The EC (2-fold) with HSF was determined as 10 µM.
For `CC(C)(C)OC(=O)N[C@@H](CS[C@H]1CC(=O)C(C)(C)C1OC(=O)C(C)(C)C)C(=O)O` (stereo in doubt) [CTM-218, (2R)-2-tert-butoxycarbonylamino-3-[(1S,2R)-2-(2,2-dimethylpropionyloxy)-3,3-dimethyl-4-oxocyclopentylsulfanyl]-propionic acid] the same measures were 22 µM and 15 µM.
In the case of `CC(C)(C)[Si](C)(C)OC1C=CC(=O)C1` (centres unmarked) [CTC-8, 4-tert-butyldimethylsilyloxy-cyclopent-2-en-1-one, reference compound], in the series on Sendai virus, the IC50 worked out at 0.5 µM. Further, the “TD100 (dose or concentration at which the compound was 100% toxic to uninfected cells)” value in the series with uninfected 37RC cells was 100 µM.
Regarding `COC(=O)[C@H](CS[C@H]1CC(=O)CC[C@@H]1O[Si](C)(C)C(C)(C)C)NC(=O)OC(C)(C)C` [CTM-68, (R)-2-tert-Butoxycarbonylamino-3-[(1S,2S)-2-(tert-butyl-dimethyl-silanyloxy)-5-oxo-cyclohexylsulfanyl]-propionic acid methyl ester], the “TD100 (dose or concentration at which the compound was 100% toxic to uninfected cells)” value in the series with uninfected 37RC cells is 9.8 µM. The CC50 at 24 h in the series “in vitro” was 9.8 µM. The EC (2-fold) in the series on HSF was determined as 98 µM.
On to `COC(=O)C(CSC1CC(=O)CC(O[Si](C)(C)C(C)(C)C)C1)NC(=O)OC(C)(C)C` (centres unmarked) [CTM-78, 2-tert-Butoxycarbonylamino-3-[3-(tert-butyl-dimethyl-silanyloxy)-5-oxo-cyclohexylsulfanyl]-propionic acid methyl ester], for which the “TD100 (dose or concentration at which the compound was 100% toxic to uninfected cells)” value in the series with uninfected 37RC cells amounted to 18.6 µM. Besides, the CC50 at 24 h in the series “in vitro” was 18.6 µM. Further, the EC (2-fold) in the series with HSF was 45 µM.
Consider `CC(C)(C)[Si](C)(C)O[C@H]1CC(=O)C[C@@H]1Sc1ccc([N+](=O)[O-])cc1` [CTM-107], for which the IC50 in the series with Sendai virus worked out at 0.3 µM; in the series with NF-κB, 47 µM. The molecule further showed a CC50 at 8 h in series [1] of 169 µM. In the series on uninfected 37RC cells, the “TD100 (dose or concentration at which the compound was 100% toxic to uninfected cells)” value was determined as 10 µM. Moreover, in the series on HSF, the EC (2-fold) stood at 21 µM.
In the case of `CC(=O)N[C@@H](CS[C@H]1CC(=O)C[C@@H]1O[Si](C)(C)C(C)(C)C)C(=O)O` [CTM-115], the IC50 in the series with Sendai virus came to 50 µM. Further, the CC50 at 8 h in series [1] is over 800 µM. The “TD100 (dose or concentration at which the compound was 100% toxic to uninfected cells)” value in the series with uninfected 37RC cells was over 500 µM. In addition, the CC50 at 24 h in “in vitro” is 228 µM.
Consider `CC(C)(C)OC(=O)N[C@@H](CS[C@H]1CC(=O)C[C@@H]1O[Si](C)(C)C(C)(C)C)C(=O)O` [CTM-145], for which the IC50 with Sendai virus amounted to 0.8 µM. Further, the CC50 at 8 h in series [1] was over 800 µM. The “TD100 (dose or concentration at which the compound was 100% toxic to uninfected cells)” value in the series with uninfected 37RC cells was found to be 50 µM. Moreover, the CC50 at 24 h in the series “in vitro” amounted to 14 µM.
Regarding `C[C@@H](CS[C@H]1CC(=O)C[C@@H]1O[Si](C)(C)C(C)(C)C)C(=O)N1CCCC1C(=O)O` (some centres unmarked) [CTM-182], the IC50 in the series on Sendai virus is 5 µM; with NF-κB it was over 100 µM. In addition, the “TD100 (dose or concentration at which the compound was 100% toxic to uninfected cells)” value in the series on uninfected 37RC cells came to 100 µM. In addition, the CC50 at 24 h in “in vitro” was 54 µM. In addition, the EC (2-fold) in the series on HSF turned out to be 60 µM.
In the case of `CC(C)(C)OC(=O)N[C@@H](CS[C@H]1CC(=O)C[C@@H]1O[Si](C)(C)C(C)(C)C)C(=O)OC(C)(C)C` [CTM-183], the IC50 in the series with Sendai virus is 1.6 µM. Also, the “TD100 (dose or concentration at which the compound was 100% toxic to uninfected cells)” value in the series on uninfected 37RC cells is 50 µM. Besides, the CC50 at 24 h in the series “in vitro” came to 28 µM.
With `CCOC(=O)[C@H](CS[C@H]1CC(=O)C[C@@H]1O[Si](C)(C)C(C)(C)C)NC(=O)OC(C)(C)C` [CTM-184], the IC50 is 1 µM in the series with Sendai virus and 61 µM in the series with NF-κB. In addition, the “TD100 (dose or concentration at which the compound was 100% toxic to uninfected cells)” value in the series on uninfected 37RC cells was determined as 50 µM. In addition, the CC50 at 24 h in “in vitro” came out at 25 µM. Also, the EC (2-fold) in the series on HSF came to 24 µM.
